From US6506772B1, “Substituted [1,2,4]triazolo[1,5a]pyridine derivatives with activity as adenosine receptor ligands” (Hoffmann-La Roche Inc., priority 2000, dated 2003)
pKi: −log10 of the molar value.

These compounds were tested against T1, human adenosine A2A receptor (Homo sapiens, UniProt P29274) (assay: Human adenosine A2A receptor [3H]-SCH-58261 binding assay). Conditions: affinity to human adenosine A2A receptor; read-out: Ki HA2A.
T1 construct: expressed in transfected cells; host or cells: CHO cells, Semliki Forest virus expression system; membrane preparation
T1 sequence (P29274 whole entry): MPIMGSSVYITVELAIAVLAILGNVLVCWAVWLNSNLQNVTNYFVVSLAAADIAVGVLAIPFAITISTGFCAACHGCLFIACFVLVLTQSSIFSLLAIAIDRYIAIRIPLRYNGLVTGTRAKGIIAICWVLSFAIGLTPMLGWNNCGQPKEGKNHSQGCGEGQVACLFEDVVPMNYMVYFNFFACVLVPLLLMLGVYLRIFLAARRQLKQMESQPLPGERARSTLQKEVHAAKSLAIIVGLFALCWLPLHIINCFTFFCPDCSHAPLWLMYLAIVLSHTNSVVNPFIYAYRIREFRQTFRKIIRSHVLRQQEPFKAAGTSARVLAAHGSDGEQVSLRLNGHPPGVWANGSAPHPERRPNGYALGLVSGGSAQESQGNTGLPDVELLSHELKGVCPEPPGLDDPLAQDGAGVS
Experimental: Human Adenosine A2A Receptor
The human adenosine A2A receptor was recombinantly expressed in chinese hamster ovary (CHO) cells using the semliki forest virus expression system. Cells were harvested, washed twice by centrifugation, homogenized and again washed by centrifugation. The final washed membrane pellet was suspended in a Tris (50 mM) buffer containing 120 mM NaCl, 5 mM KCl, 2 mM CaCl2 and 10 MM MgCl2 (pH 7.4) (buffer A). […] Compounds were tested at 10 concentrations from 10 μM-0.3 nM. All assays were conducted in duplicate and repeated at least two times. Assay plates were incubated for 1 hour at room temperature before centrifugation and then bound ligand determined using a Packard Topcount scintillation counter. IC50 values were calculated using a non-linear curve fitting program and Ki values calculated using the Cheng-Prussoff equation.

Q: With `Cc1ccsc1-c1nc2cc(C(=O)NC3CCCCC3)cc(N)n2n1` [Example 37, 5-Amino-2-(3-methyl-thiophen-2-yl)-[1,2,4]triazolo[1,5-a]pyridine-7-carboxylic acid cyclohexylamide] as the compound, how does the pKi read?
A: The pKi was 6.43.

Q: `COc1ccc(CNC(=O)c2cc(N)n3nc(-c4ccccn4)nc3c2)cc1` [Example 42, 5-Amino-2-pyridin-2-yl-[1,2,4]triazolo[1,5-a]pyridine-7-carboxylic acid 4-methoxy-benzylamide] was tested. Which pKi did it give?
A: Its pKi is 6.47.

Q: How did the pKi turn out when `COc1ccc(-c2nc3cc(C(=O)N(CCN(C)C)Cc4ccccc4)cc(N)n3n2)s1` [Example 53, 5-Amino-2-(5-methoxy-thiophen-2-yl)-[1,2,4]triazolo[1,5-a]pyridine-7-carboxylic acid benzyl-(2-dimethylamino-ethyl)-amide] was run?
A: Its pKi is 6.49.

Q: `COc1ccc(-c2nc3cc(C(=O)NCCc4ccccc4OC)cc(N)n3n2)s1` [Example 54, 5-Amino-2-(5-methoxy-thiophen-2-yl)-[1,2,4]triazolo[1,5-a]pyridine-7-carboxylic acid [2-(2-methoxy-phenyl)-ethyl]-amide] was tested. Which pKi did it give?
A: Its pKi is 6.50.

Q: `COc1ccc(-c2nc3cc(C(=O)NCCc4ccccc4F)cc(N)n3n2)s1` [Example 57, 5-Amino-2-(5-methoxy-thiophen-2-yl)-[1,2,4]triazolo[1,5-a]pyridine-7-carboxylic acid [2-(2-fluoro-phenyl)-ethyl]-amide] was tested. Which pKi did it give?
A: The pKi was 6.47.

Q: `COc1ccc(-c2nc3cc(C(=O)NC(C)c4ccccc4)cc(N)n3n2)s1` (centres unmarked) [Example 60, 5-Amino-2-(5-methoxy-thiophen-2-yl)-[1,2,4]triazolo[1,5-a]pyridine-7-carboxylic acid (1-phenyl-ethyl)-amide] was tested. Which pKi did it give?
A: The pKi was 6.41.

Q: How did the pKi turn out when `COc1ccc(-c2nc3cc(C(=O)NCc4cccnc4)cc(N)n3n2)s1` [Example 61, 5-Amino-2-(5-methoxy-thiophen-2-yl)-[1,2,4]triazolo[1,5-a]pyridine-7-carboxylic acid (pyridin-3-ylmethyl)-amide] was run?
A: Its pKi is 6.48.

Q: With `COc1ccc(-c2nc3cc(C(=O)N4CCCC4)cc(N)n3n2)s1` [Example 69, [5-Amino-2-(5-methoxy-thiophen-2-yl)-[1,2,4]triazolo[1,5-a]pyridin-7-yl]-pyrrolidin-1-yl-methanone] as the compound, how does the pKi read?
A: Its pKi is 6.47.

Q: `COc1ccc(-c2nc3cc(C(=O)NC4CC4)cc(N)n3n2)s1` [Example 72, 5-Amino-2-(5-methoxy-thiophen-2-yl)-[1,2,4]triazolo[1,5-a]pyridine-7-carboxylic acid cyclopropylamide] was tested. Which pKi did it give?
A: The pKi was 6.58.

Q: How did the pKi turn out when `COc1ccc(-c2nc3cc(C(=O)NC4CCCCCC4)cc(N)n3n2)s1` [Example 74, 5-Amino-2-(5-methoxy-thiophen-2-yl)-[1,2,4]triazolo[1,5-a]pyridine-7-carboxylic acid cycloheptylamide] was run?
A: The pKi was 6.44.

Q: With `CCN(Cc1ccccc1F)C(=O)c1cc(N)n2nc(-c3ccc(OC)s3)nc2c1` [Example 76, 5-Amino-2-(5-methoxy-thiophen-2-yl)-[1,2,4]triazolo[1,5-a]pyridine-7-carboxylic acid ethyl-(2-fluoro-benzyl)-amide] as the compound, how does the pKi read?
A: Its pKi is 7.55.

Q: With `Nc1cc(C(=O)NCc2ccccc2Br)cc2nc(-c3ccc[nH]3)nn12` [Example 92, 5-Amino-2-(1H-pyrrol-2-yl)-[1,2,4]triazolo[1,5-a]pyridine-7-carboxylic acid 2-bromo-benzylamide] as the compound, how does the pKi read?
A: Its pKi is 6.53.

Q: How did the pKi turn out when `CCN(Cc1ccccc1)C(=O)c1cc(N)n2nc(-c3ccc[nH]3)nc2c1` [Example 94, 5-Amino-2-(1H-pyrrol-2-yl)-[1,2,4]triazolo[1,5-a]pyridine-7-carboxylic acid benzyl-ethyl-amide] was run?
A: The pKi was 6.40.

Q: With `Nc1cc(C(=O)NC2CCC2)cc2nc(-c3ccc[nH]3)nn12` [Example 95, 5-Amino-2-(1H-pyrrol-2-yl)-[1,2,4]triazolo[1,5-a]pyridine-7-carboxylic acid cyclobutylamide] as the compound, how does the pKi read?
A: The pKi was 6.41.

Q: `COc1ccc(CNC(=O)c2cc(N)n3nc(-c4cccs4)nc3c2)cc1` [Example 229, 5-Amino-2-thiophen-2-yl-[1,2,4]triazolo[1,5-a]pyridine-7-carboxylic acid 4-methoxy-benzylamide] was tested. Which pKi did it give?
A: The pKi was 6.42.

Q: With `Nc1cc(C(=O)NCc2ccc(Cl)cc2)cc2nc(-c3ccoc3)nn12` [Example 230, 5-Amino-2-furan-3-yl-[1,2,4]triazolo[1,5-a]pyridine-7-carboxylic acid 4-chloro-benzylamide] as the compound, how does the pKi read?
A: The pKi was 6.48.

Q: With `COc1ccc(CNC(=O)c2cc(N)n3nc(-c4ccc(Br)o4)nc3c2)cc1` [Example 231, 5-Amino-2-(5-bromo-furan-2-yl)-[1,2,4]triazolo[1,5-a]pyridine-7-carboxylic acid 4-methoxy-benzylamide] as the compound, how does the pKi read?
A: The pKi was 6.44.

Q: `Nc1cc(C(=O)N2CCSCC2)cc2nc(-c3nccs3)nn12` [Example 318, (5-Amino-2-thiazol-2-yl-[1,2,4]triazolo[1,5-a]pyridin-7-yl)-thiomorpholin-4-yl-methanone] was tested. Which pKi did it give?
A: The pKi was 6.48.

Q: How did the pKi turn out when `COCCN(CCOC)C(=O)c1cc(N)n2nc(-c3nccs3)nc2c1` [Example 321, 5-Amino-2-thiazol-2-yl-[1,2,4]triazolo[1,5-a]pyridine-7-carboxylic acid bis-(2-methoxy-ethyl)-amide] was run?
A: Its pKi is 6.50.

Q: `CN(CCc1ccccn1)C(=O)c1cc(N)n2nc(-c3nccs3)nc2c1` [Example 324, 5-Amino-2-thiazol-2-yl-[1,2,4]triazolo[1,5-a]pyridine-7-carboxylic acid methyl-(2-pyridin-2-yl-ethyl)-amide] was tested. Which pKi did it give?
A: Its pKi is 6.53.

Q: `Nc1cc(C(=O)N2CC=C(c3ccccc3)CC2)cc2nc(-c3nccs3)nn12` [Example 326, (5-Amino-2-thiazol-2-yl-[1,2,4]triazolo[1,5-a]pyridin-7-yl)-(4-phenyl-3,6-dihydro-2H-pyridin-1-yl)-methanone] was tested. Which pKi did it give?
A: The pKi was 6.43.

Same assay, conditions: ratio KiHA1 divided by KiHA2A

Q: For `CN(C)C(=O)CN(C)C(=O)c1cc(N)n2nc(-c3nccs3)nc2c1` [Example 399, 5-Amino-2-thiazol-2-yl-[1,2,4]triazolo[1,5-a]pyridine-7-carboxylic acid dimethylcarbamoylmethyl-methyl-amide], which “selectivity (A1/A2a)” value is on record?
A: Its value is 61.4.

Q: How did the “selectivity (A1/A2a)” value turn out when `CN(C)C(=O)[C@@H]1CCCN1C(=O)c1cc(N)n2nc(-c3nccs3)nc2c1` [Example 402, 1-(5-Amino-2-thiazol-2-yl-[1,2,4]triazolo[1,5-a]pyridine-7-carbonyl)-pyrrolidine-2-carboxylic acid dimethylamide] was run?
A: Its value is 21.2.

Q: For `CC(=O)N(C)C1CCN(C(=O)c2cc(N)n3nc(-c4nccs4)nc3c2)C1` (centres unmarked) [Example 403, N-[1-(5-Amino-2-thiazol-2-yl-[1,2,4]triazolo[1,5-a]pyridine-7-carbonyl)-pyrrolidin-3-yl]-N-methyl-acetamide], which “selectivity (A1/A2a)” value is on record?
A: The value was 15.6.

Q: With `CN(C)C(=O)CN(C)C(=O)c1cc(N)n2nc(-c3ccccn3)nc2c1` [Example 428, 5-Amino-2-pyridin-2-yl-[1,2,4]triazolo[1,5-a]pyridine-7-carboxylic acid dimethylcarbamoylmethyl-methyl-amide] as the compound, how does the “selectivity (A1/A2a)” value read?
A: The value was 53.1.

Q: How did the “selectivity (A1/A2a)” value turn out when `CCN(CC)C(=O)C1CCCN(C(=O)c2cc(N)n3nc(-c4ccccn4)nc3c2)C1` (centres unmarked) [Example 434, 1-(5-Amino-2-pyridin-2-yl-[1,2,4]triazolo[1,5-a]pyridine-7-carbonyl)-piperidine-3-carboxylic acid diethylamide] was run?
A: Its value is 52.6.

Same assay, conditions: recombinant human A2A in CHO cell membranes, [3H]-SCH-58261, Cheng-Prussoff; read-out: Ki hA2A

Q: With `CN(C)C(=O)CN(C)C(=O)c1cc(N)n2nc(-c3nccs3)nc2c1` [Example 399, 5-Amino-2-thiazol-2-yl-[1,2,4]triazolo[1,5-a]pyridine-7-carboxylic acid dimethylcarbamoylmethyl-methyl-amide] as the compound, how does the pKi read?
A: The pKi was 7.00.

Q: How did the pKi turn out when `CN(C)C(=O)[C@@H]1CCCN1C(=O)c1cc(N)n2nc(-c3nccs3)nc2c1` [Example 402, 1-(5-Amino-2-thiazol-2-yl-[1,2,4]triazolo[1,5-a]pyridine-7-carbonyl)-pyrrolidine-2-carboxylic acid dimethylamide] was run?
A: Its pKi is 6.53.

Q: With `CC(=O)N(C)C1CCN(C(=O)c2cc(N)n3nc(-c4nccs4)nc3c2)C1` (centres unmarked) [Example 403, N-[1-(5-Amino-2-thiazol-2-yl-[1,2,4]triazolo[1,5-a]pyridine-7-carbonyl)-pyrrolidin-3-yl]-N-methyl-acetamide] as the compound, how does the pKi read?
A: The pKi was 6.40.

Q: How did the pKi turn out when `CN(C)C(=O)CN(C)C(=O)c1cc(N)n2nc(-c3ccccn3)nc2c1` [Example 428, 5-Amino-2-pyridin-2-yl-[1,2,4]triazolo[1,5-a]pyridine-7-carboxylic acid dimethylcarbamoylmethyl-methyl-amide] was run?
A: Its pKi is 6.93.

Q: With `CCN(CC)C(=O)C1CCCN(C(=O)c2cc(N)n3nc(-c4ccccn4)nc3c2)C1` (centres unmarked) [Example 434, 1-(5-Amino-2-pyridin-2-yl-[1,2,4]triazolo[1,5-a]pyridine-7-carbonyl)-piperidine-3-carboxylic acid diethylamide] as the compound, how does the pKi read?
A: The pKi was 6.93.

The compounds below were run against T2, HA1 adenosine receptor (Homo sapiens, UniProt P30542) (assay: Human adenosine A1 receptor affinity (Ki hA1)). Conditions: affinity to human adenosine A1 receptor.
T2 sequence (P30542 1-326): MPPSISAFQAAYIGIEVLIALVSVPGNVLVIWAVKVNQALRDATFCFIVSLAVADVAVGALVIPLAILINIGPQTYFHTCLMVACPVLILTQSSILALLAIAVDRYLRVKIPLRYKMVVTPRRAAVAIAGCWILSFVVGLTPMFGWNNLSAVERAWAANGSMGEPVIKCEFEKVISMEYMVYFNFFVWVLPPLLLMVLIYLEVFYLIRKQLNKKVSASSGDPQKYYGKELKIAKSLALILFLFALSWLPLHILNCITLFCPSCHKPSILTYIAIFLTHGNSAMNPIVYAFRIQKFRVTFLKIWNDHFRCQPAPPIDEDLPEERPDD
Assay type: binding

Q: `CCN(CC)C(=O)c1cc(N)n2nc(-c3ccc(Br)o3)nc2c1` [Example 21, 5-Amino-2-(5-bromo-furan-2-yl)-[1,2,4]triazolo[1,5-a]pyridine-7-carboxylic acid diethylamide] was tested. Which pKi did it give?
A: Its pKi is 6.63.

Q: How did the pKi turn out when `Nc1cc(C(=O)N2CCCC2)cc2nc(-c3ccc(Br)o3)nn12` [Example 22, [5-Amino-2-(5-bromo-furan-2-yl)-[1,2,4]triazolo[1,5-a]pyridin-7-yl]-pyrrolidin-1-yl-methanone] was run?
A: Its pKi is 6.26.

Q: How did the pKi turn out when `Nc1cc(C(=O)N2CCCCC2)cc2nc(-c3ccc(Br)o3)nn12` [Example 23, [5-Amino-2-(5-bromo-furan-2-yl)-[1,2,4]triazolo[1,5-a]pyridin-7-yl]-piperidin-1-yl-methanone] was run?
A: The pKi was 6.56.

Q: How did the pKi turn out when `Cc1ccc(-c2nc3cc(C(=O)N4CCCC4)cc(N)n3n2)o1` [Example 27, [5-Amino-2-(5-methyl-furan-2-yl)-[1,2,4]triazolo[1,5-a]pyridin-7-yl]-pyrrolidin-1-yl-methanone] was run?
A: Its pKi is 6.03.

Q: With `Cc1ccc(-c2nc3cc(C(=O)N4CCCCC4)cc(N)n3n2)o1` [Example 28, [5-Amino-2-(5-methyl-furan-2-yl)-[1,2,4]triazolo[1,5-a]pyridin-7-yl]-piperidin-1-yl-methanone] as the compound, how does the pKi read?
A: The pKi was 6.16.

Q: With `Nc1cc(C(=O)N2CCCC2)cc2nc(-c3ccco3)nn12` [Example 106, (5-Amino-2-furan-2-yl-[1,2,4]triazolo[1,5-a]pyridin-7-yl)-pyrrolidin-1-yl-methanone] as the compound, how does the pKi read?
A: Its pKi is 5.76.

Q: With `Nc1cc(C(=O)N2CCCCC2)cc2nc(-c3ccco3)nn12` [Example 107, (5-Amino-2-furan-2-yl-[1,2,4]triazolo[1,5-a]pyridin-7-yl)-piperidin-1-yl-methanone] as the compound, how does the pKi read?
A: Its pKi is 5.57.
